Experimental data published in patent publication US4206088A, “Solid conducting agent” (priority 1978, dated 1980).
Where a name gives a salt, the structure may show the parent alone.

Test: volume resistivity
Assay type: physicochemical
Conditions: 23° C., 50% relative humidity
Method: In the present invention, it is very important that the above-mentioned protonically conductive solid should be adsorbed and supported on a finely divided inorganic solid acid.
Incidentally, in this and subsequent Examples, all the values of the volume resistivity were those as measured at a temperature of 23° C. and a relative humidity of 50%, unless otherwise indicated.

Compound	volume resistivity
NCCN [Ethylenediamine sulfate]	2.74×10^8 .OMEGA.-cm
N=C(N)N [Guanidine sulfate]	6.69×10^7 .OMEGA.-cm
C1N2CN3CN1CN(C2)C3 [Hexamethylene-tetraamine succinate]	2.05×10^11 .OMEGA.-cm
C1CNCCN1.O=S(=O)(O)O [Piperazine sulfate]	9.35×10^7 .OMEGA.-cm
C1CCNCC1.O=S(=O)(O)O [piperidine sulfate]	3.54×10^7 .OMEGA.-cm

Test: not given
Conditions: as determined at 20° C.; cited from earlier work

Compound	First Stage Base Dissociation Constant (pKb)
c1ccc(-c2ccccn2)nc1 [2,2'-Bis-pyridine]	9.88
Nc1ccncc1 [4-Aminopyridine]	4.83
C=CCN [Allylamine]	3.51
CCCCCN [Amylamine]	3.37
NC1CCCCC1 [Cyclohexylamine]	3.36
CCNCC [Diethylamine]	3.02
CNC [Dimethylamine]	3.13
CCN [Ethylamine]	3.37
CCNN [Ethylhydrazine]	6.29
NN [Hydrazine]	6.07
NO [Hydroxylamine]	8.03
CN [Methylamine]	3.38
CNN [Methylhydrazine]	6.13
N=C(N)Nc1ccccc1 [Phenylguanidine]	3.23
C1CCNCC1 [Piperidine]	2.78
C1CCNC1 [Pyrrolidine]	2.73
CN(C)C [Trimethylamine]	4.24
C1CNC1 [Trimethylene-imine]	2.71
